Values joined by “and” are separate entries in the source; they are usually repeats but may differ in a detail not shown here. Identical values can stand only once.
Legend:
Streptomyces [1] = assay: Kcat against Streptomyces R61 DD-peptidase
Streptomyces [2] = assay: Km against Streptomyces R61 DD-peptidase
[3] = Ratio for Kcat to Km against Streptomyces R61 DD-peptidase; design: unit not given here
[4] = target: Beta-lactamase (Enterobacter cloacae) (UniProt P05364); assay: Kcat against P99 beta-lactamase
Chain of Beta-lactamase (Enterobacter cloacae) (P05364 21-381 limits assumed): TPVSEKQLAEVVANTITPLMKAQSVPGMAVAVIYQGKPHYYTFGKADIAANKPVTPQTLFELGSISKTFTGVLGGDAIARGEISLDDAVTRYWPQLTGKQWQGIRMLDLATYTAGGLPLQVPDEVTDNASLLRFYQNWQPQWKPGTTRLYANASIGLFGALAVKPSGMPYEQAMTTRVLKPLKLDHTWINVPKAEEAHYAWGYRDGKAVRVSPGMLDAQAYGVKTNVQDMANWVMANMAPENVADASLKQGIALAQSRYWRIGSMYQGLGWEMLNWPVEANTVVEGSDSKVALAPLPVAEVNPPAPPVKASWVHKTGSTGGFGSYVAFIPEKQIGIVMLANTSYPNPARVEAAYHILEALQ

[5] = Ratio for Kcat to Km was determined; design: unit not given here

k cat (Streptomyces [1]) [s⁻¹] | Km (Streptomyces [2]) | Ratio [3] | k cat [4] [s⁻¹] | Ratio [5] | SMILES
55 | 10 mM and 7 mM | 5500 and 7890 | – | – | CC(=O)NCCCC[C@H](NC(C)=O)C(=O)N[C@@H](C)C(=O)N[C@H](C)C(=O)O
10.4 | 9.8 mM | 1060 | 17.8 | 493 | CC(=O)NCCCC[C@H](NC(C)=O)C(=O)NCC(=O)O[C@H](C)C(=O)O
11.9 | 2 mM | 5850 | 5.1 | 763 | CC(=O)NCCCC[C@H](NC(C)=O)C(=O)NCC(=O)S[C@H](C)C(=O)O
0.019 | 15 mM | 1.3 | – | – | CC(=O)NCCCC[C@H](NC(C)=O)C(=O)NCC(=O)N[C@H](C)C(=O)O
24.6 | 6.8 mM | 3630 | 29 | 1240 | C[C@H](NC(=O)Cc1ccccc1)C(=O)O[C@H](C)C(=O)O
65.9 | 50.6 mM | 1300 | 63 | 2340 | CC(=O)NCCCC[C@H](NC(C)=O)C(=O)N[C@@H](C)C(=O)O[C@H](C)C(=O)O
4.3 | 11.8 mM | 366 | 27.3 | 3390 | C[C@@H](OC(=O)CNC(=O)Cc1ccccc1)C(=O)O
6.1 | 0.63 mM | 9660 | 22 | 6670 | C[C@@H](SC(=O)CNC(=O)Cc1ccccc1)C(=O)O
2 | 7 mM | 286 | – | – | C[C@H](NC(=O)Cc1ccccc1)C(=O)N[C@H](C)C(=O)O
